Reference: US10000471B2, “Pyrazole P38 map kinase inhibitors” (Respivert Limited, priority 2010, dated 2018)

Assays:
[1] = molecular target: T1, p38 MAPKα isoform (MAPK14) (Homo sapiens, UniProt Q16539); assay: Enzyme inhibition assay (FRET, Z-LYTE), p38 MAPKα via MAPKAP-K2 activation; type: biochemical; details: read-out: Enzyme Inhibition IC50 p38α
T1 construct: purchased Invitrogen
Experimental: (§1) The enzyme inhibitory activities of compounds disclosed herein were determined by fluorescence resonance energy transfer (FRET) using synthetic peptides labelled with both donor and acceptor fluorophores (Z-LYTE, Invitrogen Ltd., Paisley, UK). Recombinant, phosphorylated p38 MAPKγ (MAPK12:Invitrogen) was diluted in HEPES buffer, mixed with the test compound at the desired final concentrations and incubated for 2 hr at RT. The FRET peptide (2 μM) and ATP (100 μM) were added to the enzyme/compound mixture and incubated for 1 hr. Development reagent (protease) was added for 1 hr prior to detection in a fluorescence microplate reader (Varioskan® Flash, ThermoFisher Scientific). The site-specific protease cleaves non-phosphorylated peptide only and eliminates the FRET signal. Phosphorylation levels of each reaction were calculated using the ratio of coumarin emission (donor) over fluorescein emission (acceptor) for which high ratios indicate high phosphorylation and low ratios indicate low phosphorylation levels. The percentage inhibition of each reaction was calculated relative to non-inhibited control and the 50% inhibitory concentration (IC50 value) then calculated from the concentration-response curve.
For the p38 MAPKα isoform (MAPK14: Invitrogen), enzyme activity was evaluated indirectly by determining the level of activation/phosphorylation of the down-stream molecule, MAPKAP-K2. The p38 MAPKα protein was mixed with the test compound for 2 hr at RT. […] Development reagent was then added and the mixture incubated for 1 hr before detection by fluorescence completed the assay protocol.

p38 MAPKγ (MAPK12) = molecular target: T2, p38 MAPKγ (MAPK12) (Homo sapiens, UniProt P53778); assay: Enzyme inhibition assay (FRET, Z-LYTE), p38 MAPKγ; type: biochemical; details: read-out: Enzyme Inhibition IC50 p38γ
T2 construct: purchased Invitrogen
T2 sequence (P53778 1-367): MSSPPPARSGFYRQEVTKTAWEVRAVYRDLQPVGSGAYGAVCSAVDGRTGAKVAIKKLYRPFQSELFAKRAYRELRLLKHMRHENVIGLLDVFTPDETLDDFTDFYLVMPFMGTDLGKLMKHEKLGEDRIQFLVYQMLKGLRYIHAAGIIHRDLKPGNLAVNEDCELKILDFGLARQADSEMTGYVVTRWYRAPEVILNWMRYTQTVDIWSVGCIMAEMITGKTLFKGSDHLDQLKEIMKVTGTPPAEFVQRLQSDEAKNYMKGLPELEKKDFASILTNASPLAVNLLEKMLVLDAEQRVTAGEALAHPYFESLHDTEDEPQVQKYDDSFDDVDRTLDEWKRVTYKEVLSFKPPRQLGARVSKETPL
Experimental: as §1

[2] = tested on: TNFα release in THP-1 cells; assay: LPS-induced TNFα release in THP-1 cells; type: cell-based, human; details: Homo sapiens
Experimental: LPS-Induced TNFα Release in THP-1 Cells
THP-1 cells, a human monocytic cell line, were stimulated with 3 μg/mL of LPS (from E. Coli; 0111:B4, Sigma) for 4 hr and the supernatant collected for determination of the TNFα concentration by sandwich ELISA (Duo-set, R&D systems). The inhibition of TNFα production was calculated at each concentration by comparison with vehicle control. The 50% inhibitory concentration (IC50) was determined from the resultant concentration-response curve.

[3] = tested on: TNFα release in d-U937 cells; assay: LPS-induced TNFα release in d-U937 cells; type: cell-based, human; details: Homo sapiens, dU937, relative to 10 μg/mL BIRB796, read-out: LPS/TNFα REC50 d-U937
Experimental: (§2) LPS-Induced TNFα/IL-8 Release in d-U937 Cells
(§3) U937 cells, a human monocytic cell line, were differentiated to macrophage-type cells by incubation with phorbol myristate acetate (PMA; 100 ng/ml) for 48 to 72 hr. Cells were pre-incubated with final concentrations of test compound for 2 hr and were then stimulated with 0.1 μg/mL of LPS (from E. Coli: O111:B4, Sigma) for 4 hr. The supernatant was collected for determination of TNFα and IL-8 concentrations by sandwich ELISA (Duo-set, R&D systems). The inhibition of TNFα production was calculated as a percentage of that achieved by 10 μg/mL of BIRB796 at each concentration of test compound by comparison against vehicle control. The relative 50% effective concentration (REC50) was determined from the resultant concentration-response curve. The inhibition of IL-8 production was calculated at each concentration of test compound by comparison with vehicle control. The 50% inhibitory concentration (IC50) was determined from the resultant concentration-response curve.

[4] = tested on: IL-8 release in d-U937 cells; assay: LPS-induced IL-8 release in d-U937 cells; type: cell-based, human; details: Homo sapiens, dU937
Experimental: as §2, §3

[5] = tested on: ICAM-1 induction in BEAS2B cells; assay: Poly I:C-induced ICAM-1 induction in BEAS2B cells; type: cell-based, human; details: Homo sapiens, BEAS-2B, read-out: PolyIC/ICAM1 IC50 BEAS2B
Experimental: Poly I:C-Induced ICAM-1 Induction in BEAS2B Cells
Poly I:C (1 μg/mL) (Invivogene Ltd., San Diego, Calif.) was transfected into BEAS2B cells (human bronchial epithelial cells, ATCC) with Oligofectamine (Invitrogen, Carlsbad, Calif.). Cells were pre-incubated with final concentrations of test compounds for 2 hr and the level of ICAM1 expression on the cell surface was determined by cell-based ELISA. At a time point 18 hr after poly I:C transfection, cells were fixed with 4% formaldehyde in PBS and then endogenous peroxidase was quenched by the addition of 0.1% sodium azide and 1% hydrogen peroxide. Cells were washed with wash-buffer (0.1% Tween in PBS: PBS-Tween). and after blocking the wells with 5% milk in PBS-Tween for 1 hr, the cells were incubated with anti-human ICAM-1 antibody (Cell Signaling Technology, Danvers, Mass.) in 1% BSA PBS overnight at 4° C. The cells were washed with PBS-Tween and incubated with the secondary antibody (HRP-conjugated anti-rabbit IgG, Dako Ltd., Glostrup, Denmark). The ICAM-1 signal was detected by adding substrate and reading the absorbance at 450 nm against a reference wavelength of 655 nm using a spectrophotometer. The cells were then washed with PBS-Tween and total cell numbers in each well were determined by reading absorbance at 595 nm after Crystal Violet staining and elution by 1% SDS solution. The measured OD 450-655 readings were corrected for cell number by dividing with the OD595 reading in each well. The inhibition of ICAM-1 expression was calculated at each concentration of test compound by comparison with vehicle control. The 50% inhibitory concentration (IC50) was determined from the resultant concentration-response curve.

[6] = tested on: Differentiated U937 cells; assay: Cell viability MTT assay; type: cell-based, human; details: negative = apparent increase in viability; for MTT Assay (Viability) 4 h d-U937, percentage loss of cell viability: 4 hr in 5% FCS; for MTT Assay (Viability) 24 h d-U937, percentage loss of cell viability: 24 h in 10% FCS
Experimental: Differentiated U937 cells were pre-incubated with each test compound under two protocols: the first for 4 hr in 5% FCS and the second in 10% FCS for 24 h. The supernatant was replaced with 200 μL of new media and 10 μL of MTT stock solution (5 mg/mL) was added to each well. After incubation for 1 hr the media were removed, 200 μL of DMSO was added to each well and the plates were shaken lightly for 1 hr prior to reading the absorbance at 550 nm. The percentage loss of cell viability was calculated for each well relative to vehicle (0.5% DMSO) treatment. Consequently an apparent increase in cell viability for drug treatment relative to vehicle is tabulated as a negative percentage.

T1 sequence (Q16539 whole entry, canonical isoform): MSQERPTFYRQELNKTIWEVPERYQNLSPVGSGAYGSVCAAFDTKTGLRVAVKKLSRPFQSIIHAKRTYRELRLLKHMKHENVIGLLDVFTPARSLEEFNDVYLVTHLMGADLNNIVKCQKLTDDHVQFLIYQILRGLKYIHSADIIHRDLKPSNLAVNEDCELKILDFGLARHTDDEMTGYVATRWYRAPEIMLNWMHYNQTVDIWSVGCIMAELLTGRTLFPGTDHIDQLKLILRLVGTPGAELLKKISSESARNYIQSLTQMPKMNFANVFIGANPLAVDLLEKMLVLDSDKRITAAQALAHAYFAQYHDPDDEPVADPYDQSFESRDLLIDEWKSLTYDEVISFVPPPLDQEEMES

SMILES: CNC(=O)Nc1cc(Oc2ccc(NC(=O)Nc3cc(C(C)(C)C)nn3-c3ccc(C)cc3)c3ncccc23)ccn1 [Example 56, 1-(3-tert-butyl-1-p-tolyl-1H-pyrazol-5-yl)-3-(5-(2-(3-methylureido)pyridin-4-yloxy)quinolin-8-yl)urea]
- IC50 [1]: 52.4 nM
- IC50 (p38 MAPKγ (MAPK12)): 194 nM
- IC50 [2]: 8.6 nM
- EC50 [3]: 0.9 nM
- IC50 [4]: 4.6 nM
- IC50 [5]: 12.3 nM
- MTT Assay (Viability) 4 h d-U937, percentage loss of cell viability [6]: −25.5%
- MTT Assay (Viability) 24 h d-U937, percentage loss of cell viability [6]: −28.0%

SMILES: COc1ccc(-n2nc(C(C)(C)C)cc2NC(=O)Nc2ccc(Oc3ccnc(NC(=O)NCCN4CCOCC4)c3)c(Cl)c2Cl)cc1 [Example 68, 1-(4-(4-(3-(3-tert-butyl-1-(4-methoxyphenyl)-1H-pyrazol-5-yl)ureido)-2,3-dichlorophenoxy)pyridin-2-yl)-3-(2-morpholinoethyl)urea]
- IC50 [1]: 18.2 nM
- IC50 (p38 MAPKγ (MAPK12)): 137 nM
- IC50 [2]: 1.4 nM
- EC50 [3]: 0.2 nM
- IC50 [4]: 10.3 nM
- IC50 [5]: 3.3 nM
- MTT Assay (Viability) 4 h d-U937, percentage loss of cell viability [6]: 11.3%
- MTT Assay (Viability) 24 h d-U937, percentage loss of cell viability [6]: 73.3%

SMILES: CNC(=O)Nc1cc(COc2ccc(NC(=O)Nc3cc(C(C)(C)C)nn3-c3ccc(C)cc3)c3cccnc23)ccn1 [Example 21, 1-(3-tert-Butyl-1-p-tolyl-1H-pyrazol-5-yl)-3-(8-((2-(3-methylureido)pyridin-4-yl)methoxy)quinolin-5-yl)urea]
- IC50 [1]: 81.5 nM
- IC50 (p38 MAPKγ (MAPK12)): > 17300 nM
- IC50 [2]: 1770 nM
- EC50 [3]: 164 nM
- IC50 [4]: 12900 nM
- IC50 [5]: > 1730 nM
- MTT Assay (Viability) 4 h d-U937, percentage loss of cell viability [6]: 14.5%
- MTT Assay (Viability) 24 h d-U937, percentage loss of cell viability [6]: −12.0%

SMILES: COc1cc(-n2nc(C(C)(C)C)cc2NC(=O)Nc2ccc(Oc3ccnc(NC(=O)N4CC[C@H](N(C)C)C4)c3)c(Cl)c2Cl)ccc1CO [Example 84, (S)-N-(4-(4-(3-(3-tert-butyl-1-(4-hydroxymethyl-3-methoxyphenyl)-1H-pyrazol-5-yl)ureido)-2,3-dichlorophenoxy)pyridin-2-yl)-3-(dimethylamino)pyrrolidine-1-carboxamide]
- IC50 [1]: 13.8 nM
- IC50 (p38 MAPKγ (MAPK12)): 27 nM
- IC50 [2]: 1.2 nM
- EC50 [3]: 1.4 nM
- IC50 [4]: 9.6 nM
- IC50 [5]: 2.6 nM
- MTT Assay (Viability) 4 h d-U937, percentage loss of cell viability [6]: 3.2%
- MTT Assay (Viability) 24 h d-U937, percentage loss of cell viability [6]: 56.7%

SMILES: COc1ccc(-n2nc(C(C)(C)C)cc2NC(=O)Nc2ccc(Oc3ccnc(NC(=O)NCCCn4ccnc4)c3)c(Cl)c2Cl)cc1 [Example 69, 1-(3-(1H-imidazol-1-yl)propyl)-3-(4-(4-(3-(3-tert-butyl-1-(4-methoxyphenyl)-1H-pyrazol-5-yl)ureido)-2,3-dichlorophenoxy)pyridin-2-yl)urea]
- IC50 [1]: 15.2 nM
- IC50 (p38 MAPKγ (MAPK12)): 68.3 nM
- IC50 [2]: 1.4 nM
- EC50 [3]: 0.6 nM
- IC50 [4]: 4.2 nM
- IC50 [5]: 22.2 nM
- MTT Assay (Viability) 4 h d-U937, percentage loss of cell viability [6]: 8.8%
- MTT Assay (Viability) 24 h d-U937, percentage loss of cell viability [6]: 75.5%

SMILES: CC(C)(C)c1cc(NC(=O)Nc2ccc(Oc3ccnc(NC(=O)NCCN4CCOCC4)c3)c(Cl)c2Cl)n(-c2ccc(CO)cc2)n1 [Example 71, 1-(4-(4-(3-(3-tert-butyl-1-(4-hydroxymethylphenyl)-1H-pyrazol-5-yl)ureido)-2,3-dichlorophenoxy)pyridin-2-yl)-3-(2-morpholinoethyl) urea]
- IC50 [1]: 19.4 nM
- IC50 (p38 MAPKγ (MAPK12)): 60.4 nM
- IC50 [2]: 0.7 nM
- EC50 [3]: 1.1 nM
- IC50 [4]: 1.4 nM
- IC50 [5]: 1.9 nM
- MTT Assay (Viability) 4 h d-U937, percentage loss of cell viability [6]: −20.5%
- MTT Assay (Viability) 24 h d-U937, percentage loss of cell viability [6]: 84.3%

SMILES: COCC(=O)Nc1cc(Oc2cc(Cl)c(NC(=O)Nc3cc(C(C)(C)C)nn3-c3ccc(C)cc3)cc2Cl)ccn1 [Example 39, N-(4-(4-(3-(3-tert-butyl-1-p-tolyl-1H-pyrazol-5-yl)ureido)-2,5-dichlorophenoxy)pyridin-2-yl)-2-methoxyacetamide]
- IC50 [1]: 11.5 nM
- IC50 (p38 MAPKγ (MAPK12)): 3470 nM
- IC50 [2]: 9.6 nM
- EC50 [3]: 27 nM
- IC50 [4]: 108 nM
- IC50 [5]: 109 nM
- MTT Assay (Viability) 4 h d-U937, percentage loss of cell viability [6]: 6.5%
- MTT Assay (Viability) 24 h d-U937, percentage loss of cell viability [6]: −3.0%

SMILES: CNC(=O)Nc1cc(Oc2ccc(NC(=O)Nc3cc(C(C)(C)C)nn3-c3ccc(OC)cc3)c3cccnc23)ccn1 [Example 58, 1-(3-tert-butyl-1-(4-methoxyphenyl)-1H-pyrazol-5-yl)-3-(8-(2-(3-methylureido)pyridin-4-yloxy)quinolin-5-yl)urea]
- IC50 [1]: 34.1 nM
- IC50 (p38 MAPKγ (MAPK12)): 176 nM
- IC50 [2]: 2.2 nM
- EC50 [3]: 2.1 nM
- IC50 [4]: 3.3 nM
- IC50 [5]: 13.2 nM
- MTT Assay (Viability) 4 h d-U937, percentage loss of cell viability [6]: −12.4%
- MTT Assay (Viability) 24 h d-U937, percentage loss of cell viability [6]: −29.0%

SMILES: COc1ccc(-n2nc(C(C)(C)C)cc2NC(=O)Nc2ccc(Oc3ccnc(NC(=O)CN(C)C)c3)c(Cl)c2Cl)cc1 [Example 43, N-(4-(4-(3-(3-tert-butyl-1-(4-methoxyphenyl)-1H-pyrazol-5-yl)ureido)-2,3-dichlorophenoxy)pyridin-2-yl)-2-(dimethylamino)acetamide]
- IC50 [1]: 27.5 nM
- IC50 (p38 MAPKγ (MAPK12)): 78.1 nM
- IC50 [2]: 0.4 nM
- EC50 [3]: 0.9 nM
- IC50 [4]: 1.3 nM
- IC50 [5]: 2.3 nM
- MTT Assay (Viability) 4 h d-U937, percentage loss of cell viability [6]: −18.7%
- MTT Assay (Viability) 24 h d-U937, percentage loss of cell viability [6]: 79.1%
